Columns and labels:
murine melanoma B16-F10 = experiment: Anti-tumor efficacy in mice bearing s.c. murine melanoma B16-F10, daily i.v. x5; type: in vivo; conditions: 2 mg/kg (free drug's MTD), daily i.v. for 5 days
Description: (§1) Polymeric prodrug conjugate, conjugate, 6, a doxorubicin (Dox)-containing construct in which the drug moiety is attached to the PEG backbone via a cathepsin B-cleavable linker peptide was tested in mice bearing murine melanoma B16-F10 implanted s.c. Mice were treated by daily i.v. (tail vein) injection for 5 consecutive days, beginning on the day when tumors became palpable. The conjugate was studied at the maximum tolerated dose (MTD) of the free drug, 2 mg Dox/kg (equimolar comparison), and at the conjugate's MTD, 6 mg Dox/kg (equitoxic comparison). The conjugate, 6, or Dox administered at the free drug's MTD (2 mg/kg) had minimal anti-tumor effect (30% tumor reduction, 3.4 days delay in reaching 500 mg). But at the conjugate's MTD of 6 mg Dox/kg there was substantial activity (FIG. 1A). The conjugate reduced tumor by 81% and extended the time to reach 500 mg to 6.5 days. Therefore as a polymeric prodrug conjugate it was possible to increase the tolerated drug dose by a factor of 3, and this increase permitted the achievement of substantially greater anti-tumor efficacy.

[1] = Maximum tolerated dose of Dox and conjugate in mice, daily i.v. x5; type: in vivo; conditions: daily i.v. injection for 5 consecutive days
Description: as §1

[2] = Maximum tolerated dose of Pt construct and oxaliplatin; type: in vivo, C57B1/6 mice; conditions: mice
Text: Plasmin labile construct, 26, bearing an aspartic acid-platinum-diamino-cyclohexane (DACH) chelate was studied using C57B1/6 mice bearing s.c. B16-F10 murine melanoma (FIG. 1C). […] Thus, a substantially larger dose of Pt was safely delivered by the polymeric prodrug construct.

Row | SMILES | delay in reaching 500 mg (murine melanoma B16-F10) | tumor reduction (murine melanoma B16-F10) | maximum tolerated dose (MTD) [1] | maximum tolerated dose (MTD) [2]
1 | COc1cccc2c1C(=O)c1c(O)c3c(c(O)c1C2=O)C[C@@](O)(C(=O)CO)C[C@@H]3O[C@H]1C[C@H](N)[C@H](O)[C@H](C)O1 [Dox, doxorubicin] | 3.4 days | 30% | 2 mg Dox/kg | –
2 | O=C1[O][Pt]2([NH][C@@H]3CCCC[C@H]3[NH]2)[O]C1=O [oxaliplatin] | – | – | – | 10 mg Pt/kg

Source: patent US20040228831A1, “Polymeric conjugates for tissue activated drug delivery” (priority 2003, published 2004)
